1 compound from patent US6794398B1, “Preventive/remedies for liver diseases” (Mitsubishi Pharma Corporation, priority 1999, dated 2004) can be followed below.

In assay [1] the test system is rat with hepatic fibrosis induced by dimethylnitrosamine. As to the kind of experiment: Effect on rat with hepatic fibrosis induced by dimethylnitrosamine. It is filed as in vivo. The following applies: 30 mg/kg orally every day for 4 weeks, male Wistar rats, liver, 5 rats. As for the experimental part: 1% Dimethylnitrosamine (100 μl/100 g rat body weight) was intraperitoneally administered to male Wistar rats for 3 consecutive days per week for 4 weeks (12 times in total) to prepare a hepatic fibrosis model rat. To the Y-27632 administration group, Y-27632 (30 mg/kg) was orally administered every day for 4 weeks from the day when the dimethylnitrosamine administration was started. To the control group, physiological saline was administered. Four weeks later, the liver was removed and the level of fibrogenesis of the tissue, collagen content and hydroxyproline amount were measured.
The level of fibrogenesis was measured as follows. A part of the removed liver was fixed with a formalin solution overnight, and a paraffin embedded piece was prepared and stained by Masson trichrome stain. The stained images were input in a computer through a digital camera (Fujix HC-1000, Fuji Film, Tokyo, Japan) and, using a computer-assisted morphometric analyzer (MacScope, Mitani corporation, Fukui, Japan), the area ratio of the collagen portion stained in bright green was determined as the degree of fibrogenesis.
The amout of tissue collagen was measured as follows according to the method of Shiba et al. (Shiba M, et al. Liver, 1998, Jun; 18(3): 196-204). That is, a part of the removed liver was homogenized with a 33-fold amount (ml/g) of 0.5M aqueous acetic acid solution in a Polytron PCU-2 homogenizer (Kinematica, Luzern, Switzerland). The homogenate was subjected to ultrasonication treatment for 2 min after freeze-thawing. After extraction with an acid, a fraction containing insoluble collagen was heated at 80° C. for 60 minutes to convert the insoluble collagen to water-soluble gelatin. The amount of gelatin was measured with a Sircol collagen assay kit (Biocolor, Belfast, Northern Ireland).
The amount of hydroxyproline was measured as follows. […] The amount of hydroxyproline was measured according to the method of Fujiwara et al. (Fujiwara et al., Anal. Biochem., 1987; 166: 72-8) with a high performance liquid chromatography system (SRL Inc., Tachikawa, Japan).

Assay [2] relates to Hepatic stellate cells (HSC). As to the kind of experiment: Effect on cell morphology of hepatic stellate cell. Type of assay: cell-based, rat. The following applies: Y-27632 30 μM, DMEM with 1% FCS, one hour, phase contrast microscope. As for the experimental part: Hepatic stellate cells (HSC) were prepared from the liver of male Wistar rat according to the method of Friedman et al (Friedman S. L, et al., Proc Natl Acad Sci USA 1985; 82: 8681-8685). HSC were cultured in Dulbecco's modified Eagle's medium (DMEM) containing 20% fetal calf serum (FCS) and the cells after 3 to 8 passages were used. HSC to be subjected to the experiment were sown in a dish treated with fibronectin (10 μg/ml), cultured in DMEM medium containing 20% FCS for 24 hours and changed to DMEM medium containing 1% FCS or DMEM medium containing Y-27632 (30 μM) and 1% FCS. One hour later, HSC were fixed with a 3.7% formaldehyde solution and observed under a phase contrast microscope.

Assay [3] relates to Hepatic stellate cells (HSC). As to the kind of experiment: Effect on production of collagen I in hepatic stellate cells (ELISA). Type of assay: cell-based, rat. The following applies: Y-27632 30 μM, DMEM without FCS, 48 hours of culture, n=4. The protocol:
In the same manner as in Experimental Example 1, HSC were prepared from rat liver and cultured in DMEM medium containing 20% FCS for 8 days and changed to DMEM medium without FCS or DMEM medium containing Y-27632 (30 μM) but without FCS. After 48 hours of culture, the amount of collagen I contained in the supernatant was measured by ELISA (enzyme-linked immunosorbent assay) (Moshage H, et al., Hepatology 1990; 12: 511-518). As a result, the amount was 19.5±3.0 μg/μg DNA for the group without Y-27632 and 8.2±2.3 μg/μg DNA for the group with the addition of Y-27632, showing a significant low level for the group with the addition of Y-27632 (p<0.01, n=4).

In the case of `C[C@@H](N)[C@H]1CC[C@H](C(=O)Nc2ccncc2)CC1` [Compound Y-27632, (+)-trans-4-(1-aminoethyl)-1-(4-pyridylcarbamoyl)cyclohexane 2HCl·H2O], in assay [1], the “content of collagen in the tissue” value is 601.3±67.7 μg/100 mg-rat liver weight; the “content of hydroxyproline in the tissue” value was 29.8±9.1 μmol/g-rat liver weight; the “level of fibrogenesis (area ratio of collagen portion, Masson trichrome stain)” value was 6.3±0.7%. Also, in assay [2], the “cell morphology of hepatic stellate cells” value was “spindle-like shape with dendroidal protrusions (non-active type)”. Also, in assay [3], the “amount of collagen I contained in the supernatant” value turned out to be 8.2±2.3 μg/μg DNA.
